Key:
MCF7 cells = experiment: MTT anti-proliferation assay, MCF7; type: cell-based; conditions: Homo sapiens, MCF7, 48 h, read-out: IC50 tumor cell growth inhibition MCF7
HL60 cells = experiment: MTT anti-proliferation assay, HL60; type: cell-based; conditions: Homo sapiens, HL-60, 48 h, read-out: IC50 tumor cell growth inhibition HL60
K562 cells = experiment: MTT anti-proliferation assay, K562; type: cell-based; conditions: Homo sapiens, K562, 48 h, read-out: IC50 tumor cell growth inhibition K562
PC3 cells = experiment: MTT anti-proliferation assay, PC3; type: cell-based; conditions: Homo sapiens, PC-3, 48 h, read-out: IC50 tumor cell growth inhibition PC3
U937 cells = experiment: MTT anti-proliferation assay, U937; type: cell-based; conditions: Homo sapiens, U-937, 48 h, read-out: IC50 tumor cell growth inhibition U937
U937 cell line [1] = experiment: Western blot of acetylated histone H3, H4, p21 and acetylated tubulin in U937; type: cell-based, Human; conditions: U937, 1 µM; for cell permeability and intracellular HDAC inhibition: 6h and 24h, western blot; for acetylated tubulin level, 24h: after 24h
U937 cell line [2] = experiment: Western blot of c-Raf, p-Erk, Erk, p-Akt, Akt in U937; type: cell-based, Human; conditions: U937, 1 µM, 24h
U937 xenograft = experiment: In vivo antitumor assay against U937 xenograft; design: species or system athymic nude mice; conditions: 100 mg/kg/d intragastric, 16 days; for mean weight of tumors: negative control 2.66 g
[3] = Body weight and organ toxicity in the U937 xenograft study; type: in vivo; conditions: 100 mg/kg/d intragastric, measured every two days
Water solubility = type: physicochemical; conditions: compared among the derived molecules

Row | SMILES | IC50 (MCF7 cells) [µM] | IC50 (HL60 cells) [µM] | IC50 (K562 cells) [µM] | IC50 (PC3 cells) [µM] | IC50 (U937 cells) [µM] | cell permeability and intracellular HDAC inhibition (U937 cell line [1]) | acetylated tubulin level, 24h (U937 cell line [1]) | p-Akt level (U937 cell line [2]) | inhibitory ratio (tumor weight) (U937 xenograft) [%] | mean weight of tumors (U937 xenograft) [g] | mice body weight loss [3] | water solubility (Water solubility)
1 | O=C(NO)c1ccc(NC(=O)[C@@H](NC(=O)c2cccc(Br)c2)c2ccccc2)cc1 [Compound D13, (S)-3-bromo-N-(2-((4-(hydroxycarbamoyl)phenyl)amino)-2-oxo-1-phenylethyl)benzamide] | 9.71 ± 0.44 | 1.53 ± 0.04 | 1.58 ± 0.06 | 31.6 ± 2.33 | 1.39 ± 0.03 | cell permeable and can inhibit intracellular and even nuclear HDACs | still significant | – | – | – | – | –
2 | O=C(NO)c1ccc(NC(=O)[C@@H](NS(=O)(=O)c2cccc3ccccc23)c2ccccc2)cc1 [Compound D5, (S)-N-hydroxy-4-(2-(naphthalene-1-sulfonamido)-2-phenylacetamido)benzamide] | 8.66 ± 0.73 | 2.88 ± 0.16 | 0.93 ± 0.02 | 10.1 ± 0.57 | 1.63 ± 0.09 | cell permeable and can inhibit intracellular and even nuclear HDACs | still significant | – | – | – | – | –
3 | CN(C)c1cccc2c(S(=O)(=O)N[C@H](C(=O)Nc3ccc(C(=O)NO)cc3)c3ccccc3)cccc12 [Compound D17, (S)-4-(2-(5-(dimethylamino)naphthalene-1-sulfonamido)-2-phenylacetamido)-N-hydroxybenzamide] | 5.34 ± 0.22 | 3.66 ± 0.13 | 0.7 ± 0.01 | 3.31 ± 0.16 | 1.24 ± 0.02 | cell permeable and can inhibit intracellular and even nuclear HDACs | reduced | significantly decreased | 53.57 | 1.24 | No evidence of mice body weight (measured every two days) loss | best water solubility
4 | O=C(CCCCCCC(=O)Nc1ccccc1)NO [SAHA, Suberoyl anilide hydroxamic acid, reference compound] | – | – | 1.86 ± 0.07 | – | – | – | – | – | – | 2.00 | – | –

The next lines start with results.

Row | IC50 (MCF7 cells) [µM] | IC50 (HL60 cells) [µM] | IC50 (K562 cells) [µM] | IC50 (PC3 cells) [µM] | IC50 (U937 cells) [µM] | SMILES | cell permeability and intracellular HDAC inhibition (U937 cell line [1]) | acetylated tubulin level, 24h (U937 cell line [1]) | p-Akt level (U937 cell line [2]) | inhibitory ratio (tumor weight) (U937 xenograft) [%] | mean weight of tumors (U937 xenograft) [g] | mice body weight loss [3] | water solubility (Water solubility)
5 | 8.23 ± 0.32 | 0.78 ± 0.02 | 3.16 ± 0.11 | 20.5 ± 1.73 | 1.71 ± 0.03 | COc1ccccc1C(=O)N[C@H](C(=O)Nc1ccc(C(=O)NO)cc1)c1ccccc1 [Compound D11, (S)-N-(2-((4-(hydroxycarbamoyl)phenyl)amino)-2-oxo-1-phenylethyl)-2-methoxybenzamide] | – | – | – | – | – | – | –
6 | 5.14 ± 0.43 | 3.83 ± 0.29 | 1.55 ± 0.05 | 1.51 ± 0.05 | 1.31 ± 0.07 | COc1ccccc1NC(=O)N[C@H](C(=O)Nc1ccc(C(=O)NO)cc1)c1ccccc1 [Compound D18, (S)-N-hydroxy-4-(2-(3-(2-methoxyphenyl)ureido)-2-phenylacetamido)benzamide] | cell permeable and can inhibit intracellular and even nuclear HDACs | reduced | – | – | – | – | –
7 | 6.28 ± 0.33 | 1.8 ± 0.09 | 1.93 ± 0.12 | 3 ± 0.15 | 1.55 ± 0.04 | COc1ccc(C(=O)N[C@H](C(=O)Nc2ccc(C(=O)NO)cc2)c2ccccc2)cc1 [Compound D12, (S)-N-hydroxy-4-(2-(4-methoxybenzamido)-2-phenylacetamido)benzamide] | – | – | – | – | – | – | –
8 | 2.04 ± 0.17 | 4.55 ± 0.21 | 1.59 ± 0.06 | 5.88 ± 0.36 | 1.64 ± 0.08 | O=C(NO)c1ccc(NC(=O)[C@@H](NC(=O)c2ccc(F)cc2)c2ccccc2)cc1 [Compound D4, (S)-4-fluoro-N-(2-((4-(hydroxycarbamoyl)phenyl)amino)-2-oxo-1-phenylethyl)benzamide] | – | – | – | – | – | – | –
9 | 2.92 ± 0.15 | 3.15 ± 0.13 | 1.19 ± 0.04 | 3.77 ± 0.27 | 1.32 ± 0.07 | O=C(NO)c1ccc(NC(=O)[C@@H](NC(=O)c2ccc3ccccc3c2)c2ccccc2)cc1 [Compound D3, (S)-N-(2-((4-(hydroxycarbamoyl)phenyl)amino)-2-oxo-1-phenylethyl)-2-naphthamide] | cell permeable and can inhibit intracellular and even nuclear HDACs | still significant | significantly decreased | – | – | – | –
10 | 10.8 ± 0.93 | 2.02 ± 0.15 | 1.47 ± 0.07 | 5.67 ± 0.35 | 1.77 ± 0.06 | O=C(NO)c1ccc(NC(=O)[C@@H](NC(=O)c2ccccc2)c2ccccc2)cc1 [Compound D7, (S)-4-(2-benzamido-2-phenylacetamido)-N-hydroxybenzamide] | – | – | – | – | – | – | –
